These results are taken from patent US6579898B2, “Compositions having improved bioavailability” (Pfizer Inc., priority 2001, dated 2003).

For data set [1] the following is noted: in vivo.
Data set [2] in a line: Eletriptan transport across Caco-2 cell monolayers, effect of concentration. It counts as in vitro ADME, human. Particulars: human, 2 hours, 37° C. Here is the method: (§1) Caco-2 cell monolayers were grown on permeable 24 well filter supports (1 μm poresize) and used at Day 15-28.
(§2) In studies examining the effect of concentration, 1, 10, 25 and 100 μM solutions of eletriptan in HBSS were added to the donor chamber and Hank's balanced salt solution (HBSS) was added to the acceptor chamber. The volume of the apical and basolateral chambers were 0.25 ml and 1 ml respectively.
(In general: Passage across Caco-2 layers is used to estimate intestinal permeability.)

Data set [3] relates to Human Intestinal (Caco-2) Cell Monolayers. Described as above. The data set is classed as in vitro ADME. Particulars: Caco-2, higher secretory than absorptive flux at low concentrations. The method, then: as §1, §2
A short description of data set [4]: Effect of Vitamin E-TPGS on the pharmacokinetics of eletriptan in beagle dogs. The data set is classed as in vivo. Particulars: male, dog, plasma, oral, fasted, 0.2 or 1.0 mg/kg eletriptan with or without 6.67 mg/kg Vitamin E-TGPS. Here is the method: This was a crossover study to assess the effects of Vitamin E-TGPS on the rate of absorption of eletriptan. Four male beagle dogs were orally dosed in the fasted state with a 20 ml aqueous formulation comprising
(a) 0.2 mg/kg eletriptan;
(b) 0.2 mg/kg eletriptan coformulated with 6.67 mg/kg of Vitamin E-TGPS;
(c) 1.0 mg/kg eletriptan; and
(d) 1.0 mg/kg eletriptan coformulated with 6.67 mg/kg of Vitamin E-TGPS.
Blood samples (2.5 ml) were collected at 0, 0.17, 0.33, 0.5, 1, 2, 4, 6, 8, 12 and 24 hours after dosing and centrifuged. The resulting plasma samples were deep frozen until analysed for eletriptan by hplc with electrochemical detection.

The target of the next data set is p-gp (Homo sapiens, UniProt P08183). In words: in vitro. Particulars: Caco-2.
Sequence of p-gp (P08183 whole entry): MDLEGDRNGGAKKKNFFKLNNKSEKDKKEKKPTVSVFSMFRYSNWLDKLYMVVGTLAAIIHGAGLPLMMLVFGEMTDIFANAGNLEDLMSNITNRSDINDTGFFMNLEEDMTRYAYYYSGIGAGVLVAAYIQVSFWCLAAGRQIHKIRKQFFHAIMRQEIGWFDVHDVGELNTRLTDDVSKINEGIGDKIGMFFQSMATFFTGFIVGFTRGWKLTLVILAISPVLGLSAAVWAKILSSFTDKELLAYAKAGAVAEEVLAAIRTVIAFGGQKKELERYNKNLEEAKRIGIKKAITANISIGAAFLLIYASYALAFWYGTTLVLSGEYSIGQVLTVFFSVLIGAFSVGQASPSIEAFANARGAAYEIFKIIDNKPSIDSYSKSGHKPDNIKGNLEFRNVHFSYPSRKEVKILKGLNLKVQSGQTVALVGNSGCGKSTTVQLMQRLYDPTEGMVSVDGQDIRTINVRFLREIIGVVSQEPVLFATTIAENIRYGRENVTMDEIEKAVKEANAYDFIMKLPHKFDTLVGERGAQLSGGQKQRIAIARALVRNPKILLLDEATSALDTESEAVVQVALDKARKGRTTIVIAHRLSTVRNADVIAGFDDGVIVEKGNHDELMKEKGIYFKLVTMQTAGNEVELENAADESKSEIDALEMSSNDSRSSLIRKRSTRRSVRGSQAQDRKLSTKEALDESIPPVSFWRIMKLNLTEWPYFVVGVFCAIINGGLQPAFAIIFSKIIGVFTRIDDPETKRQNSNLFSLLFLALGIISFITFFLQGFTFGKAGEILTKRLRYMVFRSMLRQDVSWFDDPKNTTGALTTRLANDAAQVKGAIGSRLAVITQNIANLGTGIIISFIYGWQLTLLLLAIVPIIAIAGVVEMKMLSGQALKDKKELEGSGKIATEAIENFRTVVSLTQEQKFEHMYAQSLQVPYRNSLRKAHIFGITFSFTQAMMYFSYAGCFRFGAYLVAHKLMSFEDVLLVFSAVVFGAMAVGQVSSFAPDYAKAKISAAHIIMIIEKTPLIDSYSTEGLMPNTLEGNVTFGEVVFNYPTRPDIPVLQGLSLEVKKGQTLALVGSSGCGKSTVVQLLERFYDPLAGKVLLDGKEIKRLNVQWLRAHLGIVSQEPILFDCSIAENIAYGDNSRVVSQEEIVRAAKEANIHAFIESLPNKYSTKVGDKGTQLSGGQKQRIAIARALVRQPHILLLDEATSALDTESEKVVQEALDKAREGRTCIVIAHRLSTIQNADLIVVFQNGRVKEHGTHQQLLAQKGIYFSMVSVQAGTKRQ

Take `CC(=O)N1CCN(c2ccc(OCC3COC(Cn4ccnc4)(c4ccc(Cl)cc4Cl)O3)cc2)CC1` (stereo not drawn) [ketoconazole]: in data set [1], the “eletriptan kel with the inhibitor” value was “significantly reduced”.

Turning to `CC[C@H]1OC(=O)[C@H](C)[C@@H](O[C@H]2C[C@@](C)(OC)[C@@H](O)[C@H](C)O2)[C@H](C)[C@@H](O[C@@H]2O[C@H](C)C[C@H](N(C)C)[C@H]2O)[C@](C)(O)C[C@@H](C)C(=O)[C@H](C)[C@@H](O)[C@]1(C)O` [erythromycin], the “eletriptan kel with the inhibitor” value in data set [1] is “significantly reduced”.

What is called Papp A→B is the apparent permeability from the apical to the basolateral side of a cell layer. The term Papp B→A denotes the apparent permeability from the basolateral to the apical side of a cell layer. `CN1CCC[C@@H]1Cc1c[nH]c2ccc(CCS(=O)(=O)c3ccccc3)cc12` [eletriptan]: the Papp A→B at 2 h, 1 μM in data set [2] (Caco-2, 1 μM eletriptan, read-out: Absorptive A -> B Papp) was determined as 17 ×10⁻⁶ cm/s. For the same compound, the Papp B→A at 2 h, 1 μM in data set [2] (Caco-2, 1 μM eletriptan, read-out: Secretory B -> A Papp) came to 41.8 ×10⁻⁶ cm/s. Besides, the Papp A→B at 2 h, 10 μM in data set [2] (Caco-2, 10 μM eletriptan, read-out: Absorptive A -> B Papp) is 20.2 ×10⁻⁶ cm/s. Further, the Papp B→A at 2 h, 10 μM in data set [2] (Caco-2, 10 μM eletriptan, read-out: Secretory B -> A Papp) was determined as 36.1 ×10⁻⁶ cm/s. Besides, the Papp A→B at 2 h, 25 μM in data set [2] (Caco-2, 25 μM eletriptan, read-out: Absorptive A -> B Papp) turned out to be 21.1 ×10⁻⁶ cm/s. Moreover, the apparent permeability from basolateral to apical (Papp B→A) at 2 h, 25 μM in data set [2] (Caco-2, 25 μM eletriptan, read-out: Secretory B -> A Papp) amounted to 34.1 ×10⁻⁶ cm/s. In data set [2] (Caco-2, 100 μM eletriptan, read-out: Absorptive A -> B Papp), the Papp A→B at 2 h, 100 μM amounted to 29.9 ×10⁻⁶ cm/s. Besides, the Papp B→A at 2 h, 100 μM in data set [2] (Caco-2, 100 μM eletriptan, read-out: Secretory B -> A Papp) is 32.8 ×10⁻⁶ cm/s. Moreover, in data set [3], the “substrate for the p-gp efflux transporter” value is listed as “substrate”. Further, in data set [4], the Cmax was in the range of 7 to 15 ng/mL and the Tmax was 1 to 1.7 h. Besides, on p-gp, the Papp A→B at 2 h, 10 μM was 16 ×10⁻⁶ cm/s and the Papp B→A at 2 h, 10 μM came to 32.6 ×10⁻⁶ cm/s.
